Numbers after ± are expanded uncertainties.

The conditions of data set [1]: Liquid; for mass density: 273.15 K, 101.33 kPa; for Normal boiling temperature: Ebulliometric method (Recirculating still).
Data set [2] is described as follows: refractive index (Na D-line) (dimensionless). The note with it: 273.15 K; 101.33 kPa; Liquid; Standard Abbe refractometry.

As usually defined, the mass density is mass per unit of volume. `CCCCC(CC)CO` (stereo not given) [2-ethyl-1-hexanol]: in data set [1], the mass density amounted to 832.3 ± 1.2 kg/m3 and the Normal boiling temperature turned out to be 185.1 ± 0.02 °C.
As usually defined, the refractive index is a measure of how strongly the sample bends light. Regarding `CCC(=O)O` [propanoic acid], the refractive index in data set [2] came out at 1.3811 ± 0.0004. For the same compound, in data set [1], the mass density came to 992.7 ± 0.4 kg/m3 and the Normal boiling temperature stood at 141.0 ± 0.02 °C.

The values are drawn from the NIST ThermoML archive (doi:10.1016/j.jct.2008.01.001).
